Measured values published in ChEMBL document CHEMBL3779777, “Novel amalgamation of phthalazine-quinolines as biofilm inhibitors: One-pot synthesis, biological evaluation and in silico ADME prediction with favorable metabolic fate” (Bioorg Med Chem Lett, 2016).
Converted amounts (≈) assume the structure as drawn. The source made the active and inactive calls. The rule behind the calls is not given here.

Columns and labels:
Candida albicans [1] = experiment: Antibiofilm activity against Candida albicans after 24 hrs by MTT assay; type: functional, organism-based
Pseudomonas aeruginosa [2] = experiment: Antibacterial activity against Pseudomonas aeruginosa NCIM-2036 by standard agar method; type: functional
Pseudomonas aeruginosa [3] = experiment: Antibiofilm activity against Pseudomonas aeruginosa PAO1 after 18 hrs by crystal violet staining based spectroscopy; type: functional, organism-based; settings: PAO1, 18 h
Bacillus subtilis = experiment: Antibacterial activity against Bacillus subtilis NCIM-2063 by standard agar method; type: functional
Candida albicans [4] = experiment: Antifungal activity against Candida albicans NCIM-3471 by standard agar method; type: functional
Staphylococcus aureus = experiment: Antibacterial activity against Staphylococcus aureus NCIM-2901 by standard agar method; type: functional
Candida albicans [5] = experiment: Antibiofilm activity against Candida albicans assessed as inhibition of biofilm formation after […] by Field emission scanning electron microscopy; type: functional, organism-based
Pseudomonas aeruginosa [6] = experiment: Antibiofilm activity against Pseudomonas aeruginosa assessed as inhibition of biofilm formation after […] by Field emission scanning electron microscopy; type: functional, organism-based

Structure (SMILES)	IC50 (Candida albicans [1]) [µM]	MIC (Pseudomonas aeruginosa [2]) [µg/mL]	IC50 (Pseudomonas aeruginosa [3]) [µM]	MIC (Bacillus subtilis) [µg/mL]	MIC (Candida albicans [4]) [µg/mL]	MIC (Staphylococcus aureus) [µg/mL]	inhibition (Candida albicans [5])	inhibition (Pseudomonas aeruginosa [6])
Cc1cccc2cc(C3C4=C(CC(C)(C)CC4=O)n4c(=O)c5ccccc5c(=O)n43)c3nnnn3c12 (stereo not drawn)	61.5	84.5 (≈ 177 µM)	61.5	170 (≈ 355 µM)	175 (≈ 366 µM)	91.5 (≈ 191 µM)	–	–
OC(Cn1cncn1)(Cn1cncn1)c1ccc(F)cc1F [FLUCONAZOLE]	40	–	–	–	50 (≈ 163 µM)	–	–	–
Cc1ccc2c(c1)cc(C1C3=C(CC(C)(C)CC3=O)n3c(=O)c4ccccc4c(=O)n31)c1nnnn12 (stereo not drawn)	70.5	67.5 (≈ 141 µM)	64.5	158 (≈ 329 µM)	67.5 (≈ 141 µM)	225 (≈ 470 µM)	–	–
COc1ccc2nc(Cl)c(C3C4=C(CC(C)(C)CC4=O)n4c(=O)c5ccccc5c(=O)n43)cc2c1 (stereo not drawn)	36	205 (≈ 420 µM)	73.5	57.5 (≈ 118 µM)	55 (≈ 113 µM)	77.5 (≈ 159 µM)	–	–
COc1ccc2cc(C3C4=C(CC(C)(C)CC4=O)n4c(=O)c5ccccc5c(=O)n43)c3nnnn3c2c1 (stereo not drawn)	43.5	250 (≈ 506 µM)	72	168 (≈ 340 µM)	220 (≈ 445 µM)	195 (≈ 394 µM)	–	–
COc1ccc2c(c1)cc(C1C3=C(CC(C)(C)CC3=O)n3c(=O)c4ccccc4c(=O)n31)c1nnnn12 (stereo not drawn)	81	67.5 (≈ 136 µM)	46.5	188 (≈ 379 µM)	195 (≈ 394 µM)	225 (≈ 455 µM)	–	–
COc1ccc2cc(C3C4=C(CC(C)(C)CC4=O)n4c(=O)c5ccccc5c(=O)n43)c(Cl)nc2c1 (stereo not drawn)	34.5	110 (≈ 225 µM)	58.5	98.5 (≈ 202 µM)	57.5 (≈ 118 µM)	102 (≈ 209 µM)	Active	–
CC1(C)CC(=O)C2=C(C1)n1c(=O)c3ccccc3c(=O)n1C2c1cc2ccccc2n2nnnc12 (stereo not drawn)	49.5	68.5 (≈ 147 µM)	66	100 (≈ 215 µM)	112 (≈ 242 µM)	85 (≈ 183 µM)	–	–
Cc1ccc2cc(C3C4=C(CC(C)(C)CC4=O)n4c(=O)c5ccccc5c(=O)n43)c(Cl)nc2c1 (stereo not drawn)	49.5	185 (≈ 392 µM)	51	87.5 (≈ 185 µM)	112 (≈ 238 µM)	70 (≈ 148 µM)	–	–
CC1(C)CC(=O)C2=C(C1)n1c(=O)c3ccccc3c(=O)n1C2c1cc2ccccc2nc1Cl (stereo not drawn)	79.5	45 (≈ 98.3 µM)	30	148 (≈ 324 µM)	125 (≈ 273 µM)	178 (≈ 390 µM)	–	Active
Cc1ccc2nc(Cl)c(C3C4=C(CC(C)(C)CC4=O)n4c(=O)c5ccccc5c(=O)n43)cc2c1 (stereo not drawn)	51	150 (≈ 318 µM)	46.5	158 (≈ 334 µM)	175 (≈ 371 µM)	77.5 (≈ 164 µM)	–	–
Cc1cccc2cc(C3C4=C(CC(C)(C)CC4=O)n4c(=O)c5ccccc5c(=O)n43)c(Cl)nc12 (stereo not drawn)	37.5	120 (≈ 254 µM)	66	142 (≈ 302 µM)	50 (≈ 106 µM)	67.5 (≈ 143 µM)	–	–
Cc1ccc2cc(C3C4=C(CC(C)(C)CC4=O)n4c(=O)c5ccccc5c(=O)n43)c3nnnn3c2c1 (stereo not drawn)	67.5	102 (≈ 213 µM)	51	158 (≈ 329 µM)	55 (≈ 115 µM)	112 (≈ 234 µM)	–	–
O=C(O)c1cn(C2CC2)c2cc(N3CCNCC3)c(F)cc2c1=O [CIPROFLOXACIN]	–	50 (≈ 151 µM)	47	–	–	–	–	–
